Test results taken from ChEMBL document CHEMBL1201862, “PubChem BioAssay data set” (2004).
Activity calls are given as the source filed them.

Legend:
[1] = optical artefact potency, substrate without enzyme – biochemical, fluorescence intensity, triplicate, artefact control for kallikrein-7 zymogen activator project, dose response (AID 720493)
[2] = target: Kallikrein-7 (Homo sapiens, UniProt P49862); test: Fluorescence Intensity-based biochemical primary high throughput dose response assay to identify activators of kallikrein-7 (K7) zymogen.
[3] = target: 1-phosphatidylinositol 4,5-bisphosphate phosphodiesterase beta-3 (Homo sapiens, UniProt Q01970); test: Fluorescence-based biochemical high throughput dose response assay to identify inhibitors of phospholipase C isozymes (PLC-B3).
[4] = target: 1-phosphatidylinositol 4,5-bisphosphate phosphodiesterase gamma-1 (Homo sapiens, UniProt P19174); test: Counterscreen for inhibitors of phospholipase C isozymes (PLC-B3): Fluorescence-based biochemical high throughput dose response assay to identify inhibitors of phospholipase C isozymes (PLC-gamma1).
[5] = viability loss in HEK293 kidney cells – cell-based, cherry-picks, set 5, cytotoxicity control, dose response (AID 1053117); type: functional
[6] = blockers of FN fibrillogenesis by fibroblasts – AH1F cells, Alexa488-FN fluorescence, cherry-picks, dose response (AID 1035475); type: functional, cell-based
[7] = viability loss in A549 lung cancer cells – cell-based, cherry-picks, […], cytotoxicity control, dose response (AID 1053119); type: functional
[8] = cells
[9] = target: Major prion protein (Homo sapiens, UniProt P04156); type: functional, cell-based
[10] = Late stage assay provider results from the probe development effort to identify selective inhibitors of heat shock protein 90 (HSP90): Absorbance-based cell proliferation assay in MCF7 cells.; type: functional
[11] = system: HEK293; test: cells; conditions: Homo sapiens
[12] = system: HEK293; test: cells; conditions: Homo sapiens; remark: listed apart in the source
[13] = Late stage assay provider results from the probe development effort to identify selective inhibitors of heat shock protein 90 (HSP90): Absorbance-based cell proliferation assay in SKBR3 cells.; type: functional; conditions: SK-BR-3
[14] = Late stage assay provider results from the probe development effort to identify inhibitors of the Plasmodium falciparum M17 Leucine Aminopeptidase (M17LAP): radiolabel-based cell-based dose response assay to identify compounds that inhibit P. falciparum growth in RBCs Set 2.; type: functional
[15] = viability loss in human hepatoma cells – cell-based, CellTiter-Glo luminescence, cherry-pick, set 2, cytotoxicity control, dose response (AID 743395); type: functional
[16] = target: Photoreceptor-specific nuclear receptor (Homo sapiens, UniProt Q9Y5X4); type: functional, cell-based;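 also: CHO-S cells with Gal4-NCOR and VP16-NR2E3 two-hybrid luciferase reporter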
[17] = target: COUP transcription factor 2 (Homo sapiens, UniProt P24468); test: Luminescence-based cell-based high throughput dose response assay to identify inhibitors of COUP-TFII (NR2F2).; type: functional;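 also: HEK293 cells transiently cotransfected with COUP-TFII expression vector and reporter; luciferase reporter luminescence driven by COUP-TFII from the pX2-168 reporter plasmid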
[18] = target: ATP-dependent translocase ABCB1 (Homo sapiens, UniProt P08183); test: P-gp JC-1 efflux blockers potency – Jurkat-DNR cells, flow cytometry, follow-up, dose response (AID 489002); type: functional
[19] = system: HeLa; test: viability loss in HeLa cells – cell-based, ATP luminescence, cherry-pick samples, cytotoxicity control, dose response (AID 687004); type: functional; conditions: Homo sapiens
[20] = HEK293 Cytotoxicity Assay Measured in Cell-Based System Using Plate Reader - 7071-01_Inhibitor_Dose_CherryPick_Activity_Set2.; type: functional
[21] = system: HEK293; test: viability loss in HEK293T cells – cell-based, ATP luminescence, cherry-pick samples, cytotoxicity control, dose response (AID 687005); type: functional; conditions: Homo sapiens;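 also: cells exposed to compound for 48 hours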
[22] = A2780 cell killing – plate reader, dry powder samples, cytotoxicity control, dose response (AID 743046); type: functional, cell-based
[23] = IGROV1 cell killing – plate reader, dry powder samples, PAX8 inhibitor project, dose response (AID 743043); type: functional, cell-based; conditions: IGROV-1
[24] = toxicity toward immortalized ovarian surface epithelium – cell-based, plate reader, dry powder samples, cytotoxicity control for PAX8 inhibitor project, dose response (AID 743045); type: functional
[25] = OVCAR-3 cell viability loss – plate reader, dry powder samples, PAX8 inhibitor project, dose response (AID 743044); type: functional, cell-based
[26] = target: Paired box protein Pax-8 (Homo sapiens, UniProt Q06710); test: PAX8 transcriptional activity inhibition in RMG-I – RMG-I cells, luciferase, cherry-pick, dose response (AID 687027); type: functional, cell-based;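 also: luciferase reporter driven by Pax8 target thyroperoxidase promoter measured by SteadyGlo luminescence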
[27] = HeLa cell viability loss – plate reader, dry powder, cytotoxicity control, dose response (AID 651946); type: functional, cell-based
[28] = target: Metabotropic glutamate receptor 5 (Rattus norvegicus, UniProt P31424); test: Identification of a glycine sulfonamide based non-MPEP site positive allosteric potentiator (PAM) of mGlu5 (calcium_assay).; type: functional
[29] = target: Potassium channel subfamily K member 3 (Homo sapiens, UniProt O14649); test: inhibition of human KCNK3 channel flux – CHO cells, FluxOR thallium flux, SAR follow-up (AID 652212); type: functional
[30] = target: Potassium channel subfamily K member 9 (Homo sapiens, UniProt Q9NPC2); test: KCNK9 flux blockade, concentration-response – cell-based, FluxOR thallium flux, selectivity assay for TASK1 inhibitor project, SAR follow-up (AID 652211); type: functional;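 also: potency is for inhibitors of the channel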
[31] = general mammalian cell viability loss – inhibitor set, cherry-pick, set 2, cytotoxicity control for miR-122 modulator project, dose response (AID 720697); type: functional, cell-based
[32] = MIN6 cell viability loss – mouse insulinoma, cytotoxicity control, dose response (AID 2122); type: functional;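 also: confirmatory high-throughput counterscreen run to flag cytotoxic compounds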
[33] = system: Streptococcus; test: GAS UMAA2166 growth inhibition – luminescence, BacTiterGlo, counter-screen for streptokinase expression inhibitor project, dose response (AID 1915); type: functional, organism-based;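 also: potency for reduction of bacterial viability or growth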
[34] = viability loss in HepG2 hepatoma cells – cell-based, ATP luminescence, cherry-pick, activator set 2, cytotoxicity control, dose response (AID 1053143); type: functional
[35] = system: Vero; test: mammalian cell viability reduction – secondary assay, cytotoxicity control for West Nile virus antiviral project, dose response (AID 1650); type: functional; conditions: Chlorocebus sabaeus
[36] = system: BJ; test: growth inhibition of engineered Ras-driven BJ cells – cell-based, alamar blue fluorescence, cherrypicked samples, dose response (AID 2631); type: functional; conditions: Homo sapiens;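 also: confirmatory dose-response assay in RAS-dependent BJ fibroblasts engineered with TERT, LT and ST, with cytotoxicity read by fluorescence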
[37] = system: INS1; test: INS-1E survival protection against cytokine death – cell-based, luminescence, retest, dose response (AID 449756); type: functional; conditions: Rattus norvegicus;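 also: cell death triggered by IL-1 beta plus TNF-alpha plus IFN-gamma mixture; protective hits raise ATP signal compared with cytokine alone wells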
[38] = target: Hexokinase-1 (Homo sapiens, UniProt P19367); test: HK1 enzyme activation by HKDC1 hits – biochemical, selectivity assay for HKDC1 activator project, dose response (AID 504762); type: functional
[39] = system: Streptococcus sp. 'group A'; test: Streptococcus pyogenes SK(-)GAS viability under kanamycin – luminescence, BacTiterGlo, confirmation, counter-screen for streptokinase expression inhibitor project, dose response (AID 1900); type: functional, organism-based
[40] = DRD fibroblast viability loss – cell-based, non-viral oncogenic, luminescence, dose response (AID 1934); type: functional; conditions: Homo sapiens
[41] = system: BJ; test: cells; type: functional, cell-based; conditions: Homo sapiens
[42] = target: Heat shock protein HSP 90-alpha (Homo sapiens, UniProt P07900); type: functional, organism-based
[43] = target: T1, Hexokinase HKDC1 (Homo sapiens, UniProt Q2TB90); test: activation of HKDC1 glucose phosphorylation – biochemical, W721R variant, dose response (AID 504730); type: functional
T1 sequence (Q2TB90 whole entry): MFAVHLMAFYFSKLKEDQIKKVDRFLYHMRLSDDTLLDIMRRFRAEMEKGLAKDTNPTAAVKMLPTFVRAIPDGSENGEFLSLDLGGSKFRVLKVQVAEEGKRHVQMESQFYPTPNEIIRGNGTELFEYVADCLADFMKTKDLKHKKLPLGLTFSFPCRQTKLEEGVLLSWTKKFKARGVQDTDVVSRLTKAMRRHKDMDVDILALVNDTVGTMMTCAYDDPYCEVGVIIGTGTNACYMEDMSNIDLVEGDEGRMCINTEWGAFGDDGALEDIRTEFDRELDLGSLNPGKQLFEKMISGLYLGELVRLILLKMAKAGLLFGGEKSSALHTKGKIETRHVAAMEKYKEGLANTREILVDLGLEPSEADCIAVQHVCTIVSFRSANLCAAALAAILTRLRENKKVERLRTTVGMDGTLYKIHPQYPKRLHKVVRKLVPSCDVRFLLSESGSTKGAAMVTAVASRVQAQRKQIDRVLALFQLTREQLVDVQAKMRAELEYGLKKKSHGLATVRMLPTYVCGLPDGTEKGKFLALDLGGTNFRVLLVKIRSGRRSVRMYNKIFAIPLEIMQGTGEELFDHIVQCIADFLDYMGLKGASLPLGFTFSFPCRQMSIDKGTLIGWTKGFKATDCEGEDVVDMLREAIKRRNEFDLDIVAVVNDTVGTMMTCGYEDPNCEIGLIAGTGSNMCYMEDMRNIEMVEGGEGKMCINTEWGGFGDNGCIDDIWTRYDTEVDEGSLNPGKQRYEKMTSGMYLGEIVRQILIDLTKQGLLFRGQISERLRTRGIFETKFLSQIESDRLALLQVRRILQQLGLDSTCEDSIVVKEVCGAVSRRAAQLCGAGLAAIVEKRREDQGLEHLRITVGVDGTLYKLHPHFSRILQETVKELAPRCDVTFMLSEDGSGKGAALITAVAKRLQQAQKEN

[44] = system: BJ; test: BJ-TERT-LT-ST fibroblast viability loss – cell-based, RAS-independent, luminescence, dose response (AID 1935); type: functional; conditions: Homo sapiens;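 also: BJ fibroblasts immortalized with TERT plus LT and ST oncogenes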
[45] = system: BJ; test: BJ-TERT fibroblast viability loss – cell-based, RAS-independent, luminescence, dose response (AID 1933); type: functional; conditions: Homo sapiens
[46] = target: Nonstructural protein 1 (Influenza A virus, UniProt Q194T2); type: functional, Influenza A virus (A/California/07/2009(H1N1))
[47] = decrease of insulin promoter-GFP reporter – imaging, high-content screening, mouse beta cells (AID 1628); type: functional; conditions: MIN6
[48] = cells; remark: listed apart in the source
[49] = cells; conditions: HEK293
[50] = HGIII-sPLA2 enzyme inhibition potency – biochemical, QFRET, IC50, dose response (AID 743457);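 also: green fluorescence rise as the enzyme cleaves BODIPY PC-A2 in liposomes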

## CCOC(=O)c1c(N)n(CCN2CCCCC2)c2nc3ccccc3nc12
[1]
  EC50: > 2.58 µM (active)
[2]
  EC50: 3.62 µM (active)

## CC/C(NCC1CCCO1)=C1/C(=O)NC(=O)N(Cc2ccccc2)C1=O (stereo not given)
[3]
  IC50: > 122 µM (inactive)
[4]
  IC50: > 122 µM (inactive)

## CCOc1cccc(C(=O)Nc2ccc(N(CC)CC)cc2)c1
[5]
  AC50: 34.6 µM (active)
[6]
  AC50: 64.4 µM (active)
[7]
  AC50: > 52 µM (inactive)

## Cc1ccc(S(=O)(=O)N2CCCCC2)cc1NC(=O)CSc1ncnc2ccccc12
[8]
  IC50: > 138 µM (inactive)
[9]
  IC50: 5.6 µM (active)

## O=C(NCCc1ccc(F)cc1)c1coc(=O)c(Br)c1
[10]
  IC50: 2.1 µM (active)
[11]
  EC50: > 59.7 µM (inactive)
[12]
  EC50: > 59.7 µM (inactive)
[13]
  IC50: 5.3 µM (active)

## O=C(NO)c1ccc2ccccc2c1
[14]
  IC50: 15.7 µM (inactive)

## COc1ccc(NC(=O)c2cc(S(=O)(=O)N3CCOCC3)ccc2C)cc1S(=O)(=O)N1CCOCC1
[15]
  AbsAC35_uM: 36.86 µM

## OC[C@@H]1CN(Cc2ccc(-c3ccccc3)cc2)C[C@H](n2cnc3c(NCc4ccncc4)ncnc32)O1
[16]
  IC50: 1.52 µM (active)
[17]
  IC50: 10 µM (inactive)

## O=C(Nc1ccccc1)C1CCN(c2cc(-c3ccco3)nc3cc(-c4ccccc4)nn23)CC1
[18]
  EC50: 0.1399 µM

## COc1ccc(CN(C)C[C@H]2Oc3ccc(NC(=O)Nc4ccc(F)cc4)cc3CC(=O)N([C@@H](C)CO)C[C@@H]2C)cc1
[19]
  AC50: > 52 µM (inactive)
[20]
  AC50: 26.3 µM (active)
[21]
  AC50: 26.3 µM (active)

## C[C@@H]1CN([C@H](C)CO)C(=O)c2cc(NC(=O)Nc3ccc(C(F)(F)F)cc3)ccc2O[C@@H](C)CCCCO[C@@H]1CN(C)Cc1ccncc1
[22]
  AC50: 56.9 µM (active)
[23]
  AC50: 41.8 µM (active)
[24]
  AC50: 56.4 µM (active)
[25]
  AC50: 14.8 µM (active)
[26]
  AC50: 4.21 µM (active)

## FC(F)(F)Oc1ccccc1CSc1nnc(-c2ccccc2)o1
[27]
  AC50: > 52 µM (inactive)

## CS(=O)(=O)N1c2ccccc2CCC1C(=O)Nc1cccnc1 (stereo not given)
[28]
  EC50: 3.62 µM

## Cc1cccc(C(=O)Nc2cccc(NC(=O)C3CCCCC3)c2)c1
[29]
  IC50: 17 nM (active)
[30]
  IC50: 11.9 µM (active)

## COc1cccc(NC(=O)Nc2ccc3c(c2)C(=O)N(C)C[C@@H](OC)[C@@H](C)CN[C@H](C)CO3)c1
[31]
  AC50: 1.49 µM (active)

## CC(C)(C)c1nnc(N/N=C/c2cc(Br)ccc2O)n(N)c1=O
[32]
  IC50: 2.08 µM (active)
[33]
  EC50: 3.18 µM (active)
[34]
  AC50: 5.77 µM (active)
[35]
  CC50: 5 µM (active)
[36]
  EC50: 1.24 µM (active)
[37]
  AC50: 859 nM (active)
[38]
  EC50: > 80 µM (inactive)
[39]
  EC50: 2.91 µM (active)
[40]
  EC50: 1.01 µM (active)
[41]
  EC50: 3.69 µM (inconclusive)
[42]
  AC50: 5.57 µM (active)
[43]
  EC50: 19.9 µM (active)
[44]
  EC50: 706 nM (inconclusive)
[45]
  EC50: 681 nM (active)
[46]
  IC50: 16.6 µM (active)
[47]
  IC50: 1.81 µM (active)

## Cc1ccc2[nH]c3ccccc3c(=O)c2c1
[48]
  AC50: 7.34 µM (active)
[49]
  AC50: 38.6 µM (active)

## O=C1C(=O)N(Cc2ccc(-c3ccccc3)cc2)c2ccc(OC(F)(F)F)cc21
[50]
  IC50: 32 µM (inactive)
